Measured values reported in article PMC9147192, “Small Molecule Arranged Thermal Proximity Coaggregation (smarTPCA)—A Novel Approach to Characterize Protein–Protein Interactions in Living Cells by Similar Isothermal Dose–Responses” (International Journal of Molecular Sciences, 2022).

Assays:
[1] = target: T1, MIA3 (Homo sapiens, UniProt Q5JRA6); assay: TPP-CCR in living HL-60 cells; assay type: cell-based
T1 construct: endogenous in cells; host or cells: HL-60 (ATCC CCL-240)

[2] = target: T2, NOP2 (Homo sapiens, UniProt P46087); assay: TPP-CCR in living HL-60 cells; assay type: cell-based
T2 construct: dose–responses (mean over replicates), derived from TPP-CCR experiments in living cells; endogenous in cells; host or cells: HL-60 cells (ATCC No. CCL-240)
T2 sequence (P46087 1-812): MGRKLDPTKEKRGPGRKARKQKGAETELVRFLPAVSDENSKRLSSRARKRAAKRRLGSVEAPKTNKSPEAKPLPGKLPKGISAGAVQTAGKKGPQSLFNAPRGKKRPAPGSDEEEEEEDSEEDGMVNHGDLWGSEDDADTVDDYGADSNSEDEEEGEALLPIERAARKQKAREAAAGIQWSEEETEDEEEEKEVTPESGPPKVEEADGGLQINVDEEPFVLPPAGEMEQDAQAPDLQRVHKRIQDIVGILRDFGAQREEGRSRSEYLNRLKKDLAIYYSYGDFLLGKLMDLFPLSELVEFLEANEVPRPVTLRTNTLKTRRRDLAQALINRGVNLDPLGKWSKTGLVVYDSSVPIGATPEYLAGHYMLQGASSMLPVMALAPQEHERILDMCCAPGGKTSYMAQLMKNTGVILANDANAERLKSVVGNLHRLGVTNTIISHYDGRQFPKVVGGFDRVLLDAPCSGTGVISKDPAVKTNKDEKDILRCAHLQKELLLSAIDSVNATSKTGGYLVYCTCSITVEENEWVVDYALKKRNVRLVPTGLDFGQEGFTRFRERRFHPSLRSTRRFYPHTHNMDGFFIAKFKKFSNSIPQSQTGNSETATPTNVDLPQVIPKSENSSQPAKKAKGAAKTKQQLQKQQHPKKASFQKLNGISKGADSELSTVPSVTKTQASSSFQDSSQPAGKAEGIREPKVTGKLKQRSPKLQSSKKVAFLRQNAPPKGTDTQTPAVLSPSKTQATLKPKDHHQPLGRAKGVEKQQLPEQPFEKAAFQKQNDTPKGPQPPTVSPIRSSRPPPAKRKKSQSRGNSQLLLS

[3] = living HL-60 cells, […] °C, TMT-MS

T1 sequence (Q5JRA6 23-1907): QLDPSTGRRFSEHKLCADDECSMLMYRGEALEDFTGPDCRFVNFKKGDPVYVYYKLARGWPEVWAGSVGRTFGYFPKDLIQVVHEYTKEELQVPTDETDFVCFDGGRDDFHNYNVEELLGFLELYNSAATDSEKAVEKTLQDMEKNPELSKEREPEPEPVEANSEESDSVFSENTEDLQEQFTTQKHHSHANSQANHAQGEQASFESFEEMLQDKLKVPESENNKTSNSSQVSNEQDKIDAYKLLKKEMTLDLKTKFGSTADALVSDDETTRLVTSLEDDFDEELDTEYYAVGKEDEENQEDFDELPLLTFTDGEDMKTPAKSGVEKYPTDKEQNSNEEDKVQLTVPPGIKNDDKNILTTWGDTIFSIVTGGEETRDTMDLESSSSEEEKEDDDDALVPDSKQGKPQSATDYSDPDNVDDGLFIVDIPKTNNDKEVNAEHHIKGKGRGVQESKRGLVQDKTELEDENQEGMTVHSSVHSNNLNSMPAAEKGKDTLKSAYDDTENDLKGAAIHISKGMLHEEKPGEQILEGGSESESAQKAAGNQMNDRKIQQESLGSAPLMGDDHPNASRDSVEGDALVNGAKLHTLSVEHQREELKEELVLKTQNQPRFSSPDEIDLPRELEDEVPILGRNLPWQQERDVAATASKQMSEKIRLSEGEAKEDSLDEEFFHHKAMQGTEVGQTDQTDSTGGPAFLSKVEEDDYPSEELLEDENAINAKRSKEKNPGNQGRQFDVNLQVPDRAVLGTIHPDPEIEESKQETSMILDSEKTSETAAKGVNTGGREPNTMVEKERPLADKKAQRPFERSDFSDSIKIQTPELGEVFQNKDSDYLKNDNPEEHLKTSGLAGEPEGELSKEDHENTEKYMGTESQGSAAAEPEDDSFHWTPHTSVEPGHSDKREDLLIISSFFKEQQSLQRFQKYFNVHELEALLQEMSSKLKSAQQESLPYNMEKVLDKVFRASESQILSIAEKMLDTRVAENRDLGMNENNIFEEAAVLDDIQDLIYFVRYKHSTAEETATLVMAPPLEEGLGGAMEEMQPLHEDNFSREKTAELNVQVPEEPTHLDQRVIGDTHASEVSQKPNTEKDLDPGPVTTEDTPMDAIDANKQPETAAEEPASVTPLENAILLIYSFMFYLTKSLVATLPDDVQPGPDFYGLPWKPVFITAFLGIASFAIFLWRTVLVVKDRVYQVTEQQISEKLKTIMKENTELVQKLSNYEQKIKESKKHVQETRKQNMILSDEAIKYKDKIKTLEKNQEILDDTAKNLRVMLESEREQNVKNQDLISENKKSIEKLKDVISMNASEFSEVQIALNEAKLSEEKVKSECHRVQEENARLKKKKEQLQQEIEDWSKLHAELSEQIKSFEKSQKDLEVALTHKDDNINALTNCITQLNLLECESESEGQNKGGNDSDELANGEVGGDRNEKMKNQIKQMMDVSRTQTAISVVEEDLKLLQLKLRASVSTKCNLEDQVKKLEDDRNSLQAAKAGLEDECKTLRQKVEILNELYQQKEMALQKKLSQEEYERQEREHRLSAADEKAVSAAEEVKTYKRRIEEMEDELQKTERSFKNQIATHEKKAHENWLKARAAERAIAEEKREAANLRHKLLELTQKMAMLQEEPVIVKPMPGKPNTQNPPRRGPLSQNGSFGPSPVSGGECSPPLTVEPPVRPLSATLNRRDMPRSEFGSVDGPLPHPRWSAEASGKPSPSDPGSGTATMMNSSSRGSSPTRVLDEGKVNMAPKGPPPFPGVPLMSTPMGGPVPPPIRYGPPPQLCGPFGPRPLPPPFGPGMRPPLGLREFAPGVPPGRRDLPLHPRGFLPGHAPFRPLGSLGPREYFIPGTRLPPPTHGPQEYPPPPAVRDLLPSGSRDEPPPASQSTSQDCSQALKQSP

Q: `Cc1cnc(Nc2ccc(F)cc2Cl)nc1-c1c[nH]c(C(=O)N[C@H](CO)c2cccc(Cl)c2)c1` [ERK 11e] was tested. Which Hill slope ([1]; TPP-CCR, living cells, MIA3) did it give?
A: The Hill slope was 0.98.

Q: What about the “Hill slope (MIA3)” value [1, 3] of the same compound?
A: Its value is 0.98.

Q: And the EC50 ([1]; living HL-60 cells, […] °C, TMT-MS, read-out: pEC50 (MIA3) (converted))?
A: Its EC50 is 3390 nM.

Q: What about the Hill slope ([2]; TPP-CCR, living cells, NOP2) of the same compound?
A: Its Hill slope is 0.29.

Q: What about the “Hill slope (NOP2)” value [2, 3] of the same compound?
A: The value was 0.29.

Q: What about the EC50 ([2]; living HL-60 cells, […] °C, TMT-MS, read-out: pEC50 (NOP2) (converted)) of the same compound?
A: Its EC50 is 105 nM.
